Values of other authors as cited in patent US20220184070A1, “LOW-DOSE TRIPLE COMBINATION FORMULATION” (The George Institute for Global Health, priority 2019, published 2022).
Marks after values point to notes of the source that are not given here.

Test system: plasma glucose

For N[C@@H](CC(=O)N1CCn2c(nnc2C(F)(F)F)C1)Cc1cc(F)c(F)cc1F [Sitagliptin, sitagliptin], which “Percentage change in plasma glucose from pre-prandial adjusted for placebo, at 2 h PPG” value (single dose 100 mg monotherapy, published studies) is on record?
Its value is −6.3%.

What about the “Difference in mean 2 h post-prandial glucose (PPG) vs placebo” value (single dose 100 mg, 180 min, FIG. 4) of the same molecule?
The value was roughly 1 mmol/L.

What about the “Maximum difference in plasma glucose between sitagliptin and placebo” value (single dose 100 mg, at 120 min post-dose (90 min post-meal), FIG. 4) of the same molecule?
Its value is 1.5 mmol/L.

And the “Percentage change in plasma glucose from pre-prandial adjusted for placebo, Maximum” value (single dose 100 mg, maximum achieved at 1.5 h post-prandial, published studies)?
The value was −20.3^a %.

And the “Time at which maximum PPG and serum insulin were achieved” value (single dose 100 mg, post-dose (0.5 h post-meal), FIG. 4)?
The value was roughly 1 h.
